Assay results from US20050192279A1, “Pyridazinones as antagonists of alpha4 integrins” (priority 2004, published 2005).

Legend:
circulating leukocytes = assay: In Vivo Model for Leukocytosis; parameters: species or system Balb/c mice; details: bled 1-1.5 h after administration
Source text: In Vivo Model for Leukocytosis
Leukocytosis is the increase in circulating white blood cells (leukocytes). This can be brought about by preventing leukocyte binding to counter-receptor adhesion molecules expressed on high endothelial venules. This cell adhesion occurs between immunoglobulin superfamily molecules and integrins. Relevant examples of these paired interactions include […] Adhesion Molecule-1 and AlphaL Beta2 integrin, Vascular Cell Adhesion Molecule-1 and α4β1 integrin, and Mucosal Addressin Cell Adhesion Molecule-1 and α4β7 integrin, respectively.
In this model, a compound that antagonizes these leukocyte-endothelial interactions will cause an increase in circulating leukocytes, defined as leukocytosis, as measured at 1-1.5 h post-administration. This leukocytosis is indicative that normal lymphocyte or leukocyte emigration from the peripheral circulation was prevented. Similar emigration of cells out of the circulation into inflamed tissues is responsible for the progression and maintainance of the inflammatory state. Leukocytosis is an indication that lymphocyte and leukocyte extravasation is prevented, and is predictive of general anti-inflammatory activity.
One week prior to being tested, 7-10 week old female Balb/c mice, n=8 per group, were bled and randomized according to leukocyte counts. One week later, the mice were adminstered test compound orally or subcutaneously and then bled 1-1.5 h after drug administration, approximately 1 h after the peak blood concentration of the compound occurred. Whole blood, 250-350 microliters, was collected from each mouse into potassium-EDTA serum collection tubes (Becton-Dickenson) and mixed to prevent clotting.
Cell counts and differential counts on the whole blood preparation were performed using an Advia 120 Hematology System (Bayer Diagnostics). Cell counts as total leukocytes and as total lympohcytes were made and compared to counts made from mice dosed with vehicle only. Data were reported as percent of vehicle control for lymphocyte counts and total leukocyte counts.
Statistical analyses were performed using ANOVA with Dunnet's multiple comparison test.

[1] = system: eosinophil peroxidase levels in ear punches; assay: PMA-Induced Inflammation in Mouse Ear Skin and Measurement of Eosinophil Peroxidase; type: in vivo, BALB/C mice; details: total dose 40 mg/kg po bid; ear punches 24 h after PMA
Experimental: Phorbol 12-Myristate 13-Acetate (PMA)-Induced Inflammation in Mouse Ear Skin and Measurement of Eosinophil Peroxidase
Phorbol 12-myristate 13-acetate (PMA) when applied to skin, generates a vigorous recruitment of immune cells to the site of application. Over a 24 hour period, there is accumulation of fluid and cells to the inflamed site, and thus is a general indicator of an inflammatory response. Among the recruited cells are eosinophils and neutrophils. Eosinophils can migrate into an inflamed or infected tissue via alpha 4 beta 1 integrin interactions with vascular cell adesion molecule-1 (VCAM-1) counter-receptors on vascular endothelial cells, and via alpha 4 beta 7 integrin to mucosal addressin cellular adhesion molecule on vascular endothelial cells in the gastrointestinal tract and mesenteric system. The recruited esoinophils can be quantified by measuring the presence of eosinophil peroxidase in a sample of the homogenized tissue.
Female BALB/C mice are ordered at 6 weeks of age and 16-18 grams from Charles River were used between 6-10 weeks of age. The animals were randomly assigned to groups of 10 (5/box) and housed in groups in plastic cages in a room with 12 h light-dark cycle and controlled temperature and humidity. They received food and water ad libitum.
Phorbol 12-myristate 13-acetate (PMA) was dissolved as 5 mg per mL stock in dimethyl sulfoxide (DMSO) and stored frozen as 20 microliter aliquots. For application to mouse ears, each aliquot was diluted in 2 mL with acetone.
The right ear of each mouse was treated topically with 20 microliters of acetone solution (10 microliters to each side of the ear) containing either 1 microgram of phorbol 12-myristate 13-acetate (PMA) or acetone alone.
Drugs that were tested orally were administered at −1 and +3 hours relative to PMA application.
Mice were sacrificed 24 h after PMA application. The right ear was punched with a 6 mm tissue punch and the tissue was placed in a tube on dry ice and kept frozen until extraction.
One tablet of phosphate citrate buffer was dissolved with urea hydrogen peroxide in 100 ml of water in which one tablet containing 60 mg of o-phenylenediaminedihydrochloride was added.
Ear tissue samples were homogenized in 2 ml of HTAB for 15 sec at speed 5.5 with a Polytron (large head) (Brinkman Instruments). The homogenate was stored at −20° C. until assayed. […]
Samples were typically tested at either a 1:2 or 1:4 dilution made with HTAB. […] Absorbance was read at 490 nm for the specific with subtraction of a 650 nm noise signal using a Thermomax 96-well spectrophotmetric plate reader (Molecular Devices). […]
The inhibition of PMA-induced ear edema was measured by eosinophil peroxidase levels in ear punches. […]

Compound	Lymphoycte Counts % of Vehicle Control (circulating leukocytes; 3 mg/kg sc)	Total Leukocyte Count % of Vehicle Control (circulating leukocytes; 3 mg/kg sc)	Lymphoycte Counts % of Vehicle Control (circulating leukocytes; 10 mg/kg sc)	Total Leukocyte Count % of Vehicle Control (circulating leukocytes; 10 mg/kg sc)	Lymphoycte Counts % of Vehicle Control (circulating leukocytes; 30 mg/kg sc)	Total Leukocyte Count % of Vehicle Control (circulating leukocytes; 30 mg/kg sc)	% Inh. of Eosinophil Peroxidase [1]
COc1cnn(C)c(=O)c1-c1ccc(C[C@H](NC(=O)c2c(Cl)cccc2Cl)C(=O)O)cc1 [Cpd 17]	145.3%	143.3%	191.7%	198.7%	220.2%	264.5%	34.9%
COc1cnn(C)c(=O)c1-c1ccc(C[C@H](NC(=O)[C@@H]2C3CCC(CC3)N2C(=O)CCc2ccccc2)C(=O)O)cc1 [Cpd 89, 3-[4-(5-Methoxy-2-methyl-3-oxo-2,3-dihydro-pyridazin-4-yl)-phenyl]-2(S)-{[2-(3-phenyl-propionyl)-2-aza-bicyclo[2.2.2]octane-3(S)-carbonyl]-amino}-propionic acid]							43.5%
COC(=O)[C@H](Cc1ccc(-c2c(OC)cnn(C)c2=O)cc1)NC(=O)c1c(Cl)cccc1Cl [Cpd 151]							26.5%
COc1cnn(CCO)c(=O)c1-c1ccc(C[C@H](NC(=O)OC(C)(C)C)C(=O)O)cc1 [Cpd 120]	104.3%	91.8%	112.8%	101.7%	80.0%	78.0%	
